{"source": "patent US20200397691A1", "about": "“NICOTINE MOUTH SPRAY” (Fertin Pharma A/S, priority 2017, published 2020)", "settings": "nicotine concentration increased from 100 microgram/mL to 14,000 microgram/mL", "data": [{"smiles": "CN1CCCC1c1cccnc1", "note": "(stereo not shown) [nicotine]", "values": [{"measurement": "Decrease of permeability of nicotine across the buccal mucosa (factor)", "value": "two"}]}]}
